Assay results: PubChem BioAssay (NCI)
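1) Cells in 96-well plates. 2) Compound, 48 h, 5 concentrations. 3) Linear interpolation between surrounding doses. 4) Unreached endpoint = highest concentration. TGI: total growth inhibition.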

Key:
Test in all cases: NCI tumour cell line growth inhibition, 48 h
MOLT-4 leukemia = system: MOLT-4 leukemia
SK-OV-3 ovarian = system: SK-OV-3 ovarian
T-47D breast = system: T-47D breast
COLO 205 colon = system: COLO 205 colon
RPMI-8226 leukemia = system: RPMI-8226 leukemia
OVCAR-8 ovarian = system: OVCAR-8 ovarian
HCT-15 colon = system: HCT-15 colon
A549 NSCLC = system: A549 NSCLC
SF-268 CNS = system: SF-268 CNS
HS 578T breast = system: HS 578T breast
HOP-92 NSCLC = system: HOP-92 NSCLC
SNB-19 CNS = system: SNB-19 CNS

Row | SMILES | TGI (MOLT-4 leukemia) [µM] | TGI (SK-OV-3 ovarian) [µM] | TGI (T-47D breast) [µM] | TGI (COLO 205 colon) [µM] | TGI (RPMI-8226 leukemia) [µM] | TGI (OVCAR-8 ovarian) [µM] | TGI (HCT-15 colon) [µM] | TGI (A549 NSCLC) [µM] | TGI (SF-268 CNS) [µM] | TGI (HS 578T breast) [µM] | TGI (HOP-92 NSCLC) [µM] | TGI (SNB-19 CNS) [µM]
1 | Cc1cc(NC2=CC(=O)C(=O)c3ccccc32)no1 | 31.7 | 40.3 | 32.7 | 31.6 | 32.5 | 29.4 | 19 | 19.4 | 31.2 | 40.9 | 30.1 | 31.9
2 | CN(C)C(C1=C(O)C(c2ccccc2)N(c2ccccc2)C1=O)N1CCOCC1 (stereo not given) | > 10 | > 10 | > 10 | > 10 | > 10 | > 10 | > 10 | > 10 | > 10 | > 10 | > 10 | > 10
3 | COc1ccc(N=c2oc3ccccc3cc2C(N)=O)cc1 | > 100 | 47.7 | > 100 | > 100 | > 100 | > 100 | > 100 | > 100 | 42.6 | 42.9 | > 100 | 24.7
4 | CCOC(=O)C1(C#N)OC(=O)c2cnccc21 (stereo not given) | > 100 | > 100 | > 100 | > 100 | > 100 | > 100 | > 100 | > 100 | > 100 | > 100 | > 100 | > 100
5 | COc1cc2c(cc1OC)OC(c1c(OC)ccc(OC)c1O)CC2 (stereo not given) | > 100 | > 100 | > 100 | > 100 | > 100 | > 100 | > 100 | > 100 | > 100 | > 100 | > 100 | > 100
6 | N#CC(c1ccccc1)N(CCCCCCN(C(=O)c1ccccc1)C(C#N)c1ccccc1)C(=O)c1ccccc1 (stereo not given) | > 100 | > 100 | > 100 | 39.8 | – | > 100 | > 100 | > 100 | > 100 | 83.6 | 50.3 | > 100
7 | N#CC12C(=O)N3C(=NC(c4ccco4)NC3c3ccco3)C1(C#N)C(c1ccco1)NC1=C2CCCC1 (stereo not given) | > 100 | > 100 | > 100 | > 100 | > 100 | > 100 | > 100 | > 100 | > 100 | > 100 | > 100 | > 100
8 | NC(=O)C1CCCN1C(=O)C(Cc1cnc[nH]1)NC(=O)C1CCCC1 (stereo not given) | > 100 | > 100 | > 100 | > 100 | > 100 | > 100 | > 100 | > 100 | – | > 100 | > 100 | > 100
9 | CN=C1Nc2ccccc2C(=O)N2CSCC12 (stereo not given) | > 100 | > 100 | > 100 | > 100 | > 100 | > 100 | > 100 | > 100 | > 100 | > 100 | – | > 100
10 | C=CCN(c1cc(OC)c(NC(C)=O)cc1[N+](=O)[O-])S(C)(=O)=O | > 100 | > 100 | > 100 | > 100 | > 100 | > 100 | > 100 | > 100 | > 100 | > 100 | – | > 100
11 | Cc1cc(S(=O)(=O)NC2=NCc3nc4ccccc4n32)c(S)cc1Cl | 50.2 | – | 50.3 | 34.4 | 47.6 | > 100 | 59.1 | 83.2 | > 100 | 63.3 | 47.2 | > 100
12 | Nc1nc(Cl)cc(NCC2(O)CCC2)n1 | > 100 | > 100 | > 100 | > 100 | > 100 | > 100 | > 100 | > 100 | > 100 | > 100 | > 100 | –
13 | Cc1ccc2c(=O)cc(-c3sccc3C)[nH]c2n1 | > 27.8 | > 100 | > 100 | 1.41 | – | > 31.8 | > 40.6 | – | > 56.4 | 13.6 | > 100 | > 100
14 | COc1ccccc1Nc1nc2c([nH]1)c(=O)n(C)c(=O)n2C | > 10 | > 10 | > 10 | > 10 | > 10 | > 10 | > 10 | > 10 | > 10 | – | > 10 | –
15 | COc1ccc(S(=O)(=O)N2C(=O)CCC2C(=O)NC(N)=O)cc1 (stereo not given) | > 100 | > 100 | > 100 | > 100 | > 100 | > 100 | > 100 | > 100 | – | > 100 | > 100 | > 100
16 | CC(/C=C/C(=O)NO)=C\C(C)C(=O)c1ccc(N(C)C)cc1 (stereo not given) | – | 0.224 | > 100 | 0.0854 | 74.1 | 41.6 | 21.4 | 0.0814 | 0.195 | 0.133 | 0.388 | 0.654
17 | O=C(Nc1ccc(C(F)(F)F)cc1)NC(F)(F)F | > 100 | > 100 | > 100 | > 100 | > 100 | > 100 | > 100 | > 100 | > 100 | > 100 | – | > 100
18 | C=CC(=O)Nc1ccc(NC(=O)C=C)c2c1C(=O)c1ccccc1C2=O | 96.4 | – | > 100 | > 100 | 21.2 | > 100 | > 100 | > 100 | – | > 100 | – | > 100
19 | Cc1ccc(CC2(C(=O)O)Cc3ccc(C)cc3C2)cc1 (stereo not given) | > 100 | > 100 | > 100 | > 100 | > 100 | > 100 | > 100 | > 100 | > 100 | > 100 | – | > 100
20 | CCn1cc2c(=O)n3ncn(-c4ccc(Br)cc4)c3nc2n1 | > 100 | > 100 | > 100 | > 100 | > 100 | > 100 | > 100 | > 100 | > 100 | > 100 | – | > 100

Row | SMILES | TGI (MOLT-4 leukemia) [µM] | TGI (SK-OV-3 ovarian) [µM] | TGI (T-47D breast) [µM] | TGI (COLO 205 colon) [µM] | TGI (RPMI-8226 leukemia) [µM] | TGI (OVCAR-8 ovarian) [µM] | TGI (HCT-15 colon) [µM] | TGI (A549 NSCLC) [µM] | TGI (SF-268 CNS) [µM] | TGI (HS 578T breast) [µM] | TGI (HOP-92 NSCLC) [µM] | TGI (SNB-19 CNS) [µM]
21 | CCOCCOCCOCc1nc(C#N)c(N)o1 | > 100 | > 100 | > 100 | > 100 | > 100 | > 100 | > 100 | > 100 | > 100 | – | – | –
22 | N#Cc1ccc(C(O)C(F)(F)c2nc3ccccc3o2)cc1 (stereo not given) | > 100 | > 100 | > 100 | > 100 | > 100 | > 100 | > 100 | – | > 100 | > 100 | > 100 | > 100
23 | Cc1ccc(O)c(C(c2cccc(C(c3cc(C)ccc3O)c3cc(C)ccc3O)c2)c2cc(C)ccc2O)c1 | 18.8 | 3.42 | 4.45 | 2.47 | 3.31 | 3.87 | 3.31 | 4 | 3.33 | 4.01 | – | 3.34
24 | CC(=O)OC[C@H]1CN(OC(C)=O)C[C@@H](n2cc(C)c(=O)[nH]c2=O)O1 | > 100 | > 100 | > 100 | > 100 | > 100 | > 100 | > 100 | > 100 | > 100 | > 100 | – | > 100
25 | CCOC(=O)c1cc(C2CCN(c3ccccc3)C2=O)c(/C(O)=C/C(C)=O)[nH]1 (stereo not given) | > 100 | > 100 | > 100 | > 100 | > 100 | > 100 | > 100 | > 100 | > 100 | > 100 | – | > 100
26 | Cc1c(C)c2ccc(OCC(O)COC(C)C)c(C)c2oc1=O (stereo not given) | > 10 | > 100 | > 100 | > 10 | 44.4 | > 100 | – | > 100 | > 100 | > 100 | > 100 | > 100
27 | CC1=NN(c2cccc(Cl)c2)C2(SCC(=O)N2c2nc3ccccc3s2)C1=CC=Cc1ccccc1 (stereo not given) | 87.5 | 68.5 | > 100 | – | > 100 | > 100 | > 100 | – | 93.5 | 63.4 | 45.5 | –
28 | CC(=O)Nc1ccc2c3c(cc(O)c2c1)N(C(=O)CCCC(=O)N1CC(CCl)c2c1cc(O)c1cc(NC(C)=O)ccc21)CC3CCl (stereo not given) | – | > 24.6 | < 0.01 | 0.0215 | 0.0182 | > 100 | 11.5 | – | – | – | – | –
29 | CCOC1OC(COC(=O)C(C)(C)C)C(O)CC1n1cc(C)c(=O)[nH]c1=O (stereo not given) | – | – | > 100 | > 100 | > 100 | > 100 | > 100 | > 100 | > 100 | > 100 | > 100 | > 100
30 | FC1(F)[Se]C2C3CCC(C3)C2C1(F)F (stereo not given) | > 100 | > 100 | > 100 | > 100 | > 100 | > 100 | > 100 | > 100 | > 100 | > 100 | – | > 100
31 | CC[C@]12C=CCN3CC[C@@]4(c5cc(N=O)c(OC)cc5N(C)[C@H]4[C@@](O)(C(=O)OC)[C@@H]1OC(C)=O)[C@@H]32 | > 100 | > 100 | > 100 | > 100 | – | > 100 | > 100 | > 100 | > 100 | > 100 | > 100 | > 100
32 | COC(=O)CCC(=O)c1ccc2c(c1)CCC2 | > 100 | > 100 | > 100 | – | > 100 | > 100 | > 100 | > 100 | > 100 | > 100 | > 100 | > 100
33 | COc1ccc2c(c1)Cc1c(NCCN(C)C)ccc(C(=O)NCCCN(C)CCCNC(=O)c3ccc(NCCN(C)C)c4c3Nc3ccc(OC)cc3C4)c1N2 | 2.62 | 0.502 | 12.5 | 0.207 | – | 2.86 | > 74.3 | 0.512 | 0.327 | 0.332 | 2.79 | 1.13
34 | N#CC12C(=O)NC(=O)C1(C#N)C1C=CC2CC1 (stereo not given) | > 100 | > 100 | > 100 | > 100 | > 100 | > 100 | > 100 | > 100 | > 100 | > 100 | – | > 100
35 | O=c1nc2n3c4c(cccc4nc-2c(=O)[nH]1)CCC3 | > 100 | > 100 | > 100 | > 100 | > 100 | > 100 | > 100 | > 100 | > 100 | > 100 | – | > 100
36 | CC(=O)c1nc2ccccc2n1C(C)C(=O)c1ccccc1 (stereo not given) | > 100 | > 100 | – | > 100 | > 100 | > 100 | > 100 | > 100 | > 100 | > 100 | > 100 | > 100
37 | Cc1cc(S(=O)(=O)Nc2n[nH]c(-c3ccc(Cl)cc3)n2)c(SSc2cc(Cl)c(C)cc2S(=O)(=O)Nc2n[nH]c(-c3ccc(Cl)cc3)n2)cc1Cl | 54.2 | > 100 | 42.2 | 67.4 | > 100 | > 100 | 69.1 | > 100 | > 100 | > 100 | 76.8 | –
38 | O=c1c2cc(-c3ccccc3)cnc2sn1-c1ccc(Br)cc1 | > 100 | > 100 | > 100 | > 100 | > 100 | > 100 | > 100 | > 100 | > 100 | – | > 100 | > 100
39 | CSC12c3cc(C)n(-c4ccc([N+](=O)[O-])cc4)c3CC(C)(C)CN1C(=O)C2Oc1ccccc1 (stereo not given) | > 100 | – | > 100 | > 100 | > 100 | > 100 | > 100 | > 100 | – | – | > 100 | > 100
40 | CCOC(=O)c1nc2cc(C(F)(F)F)ccc2nc1Oc1ccc(C#N)cc1 | > 100 | – | > 100 | > 100 | > 100 | > 100 | > 100 | > 100 | > 100 | > 100 | > 100 | > 100
